According to patent EP2345639A1, “Cyclic hydroxylamine derivatives, their preparation and use as antioxidants” (ABIOGEN PHARMA S.p.A., priority 2009, dated 2011):
Read-outs that look alike come from different tables or passages of the source.

Columns and labels:
[1] = Brain-to-plasma concentration ratio in mice; format: in vivo, Female CD-1 mice; details: female, CD-1, mouse, ip, 25 mg/kg intraperitoneal, area under the curve of brain and plasma concentrations 0 to 60 minutes, read-out: B/P ratio
Procedure: The ability of the compounds of the invention to penetrate the brain was investigated by measuring their brain/plasma (B/P) ratio in mice following intraperitoneal administration.
Female CD-1 mice were used (n=3 for each time period) and received the compounds of the invention by intraperitoneal administration, in 25 mg/kg doses in a 0.5% NaHCO3 buffer (pH 8.3). At predefined intervals following said administration, i.e. 5, 15, 30 and 60 minutes, the mice were killed and both plasma and total brain tissue were collected.
Specifically, after anaesthesia with ether, the animals were bled by blood withdrawal from the abdominal aorta then immediately decapitated. The blood samples were collected into plasma separator tubes containing Li-Heparin as anticoagulant and centrifuged. The resulting plasma was then stored at -20 °C. The brain was rapidly removed from the cranium and weighed, subsequently frozen and stored at -20 °C before treatment by homogenization and HPLC analysis.
The plasma was thawed and mixed with an equal volume of the extraction solution.
1 ml of solution was then extracted by adding 20 µl of 70% HClO4, then centrifuged at 15,500g for 5 minutes and injected into the HPLC.
Each brain was thawed and homogenized with the extraction solution to provide a final composition of 4 ml/1g of tissue by means of an Ultra-Turrax blender and sonicated for 5 minutes. After centrifugation of the homogenate at 15,500g for 5 minutes, the resulting solution was treated with HClO4, as indicated for the plasma. Specific chromatographic conditions had been developed for each analyte, the calibration curve being constructed for plasma and brain homogenate.

healthy animals = assay: Effect of the compounds on healthy animals (same in vivo assay, cerebral oxidative parameters); set-up: species or system mice; details: for Average % variation with respect to the vehicle: 50 mg/kg IP for three consecutive days, mean over all parameters, D = doxorubicin alone
Procedure: (§1) 10 mice were used for each treatment group. For each compound 50 mg/kg were administered intraperitoneally (IP) for three consecutive days (day 0, 1 and 2); half the animals (5) also received IP 16.7 mg/kg of doxorubicin immediately after the first treatment (day 0). On the day after the last administration (day 3) the animals were killed by neck dislocation and the brains were removed, weighed and frozen in liquid nitrogen.
(§2) For the analyses of oxidative stress, 100 mg/ml of brain homogenate was prepared in HEB^(*) buffer (pH 7.4 EDTA/HEPES^(**)) containing a mixture of enzyme inhibitors (Leupeptin, Pepstatin, Aprotinin, BHA).
(§3) The evaluation parameters were: • BrW/BWi: ratio between final brain weight and initial body weight (day 0); • Prot. Hmg: total proteins in the homogenate (BCA method, i.e. bicinchoninic acid); • Prot. Ox: oxidized proteins in the Hmg by means of a colorimetric method using dinitrophenylhydrazone (DNPH); • GSH: reduced glutathione in the supernatant (sn) of the Hmg, obtained after precipitation with metaphosphoric acid (MPA), by means of a colorimetric method using dithiodinitrobenzene (DTNB); • CAT: catalase in the Hmg by a colorimetric method using potassium dichromate; • SOD: superoxide dismutase by a colorimetric method using SOD Reagent (xanthine, EDTA, nitroblue tetrazole, Na2CO3, BSA, i.e. bovine serum albumin); • GST: glutathione S-transferase in the supernatant by a colorimetric method using chlorodinitrobenzene (CDNB) and GSH; and • GPx: glutathione peroxidase in the supernatant after addition of GSH and t-BuOOH, heating and precipitation with MPA; followed by GSH method with DTNB. The assay was performed on the compounds (1)-(5) and (7)-(11) and on edaravone (E), as comparative compound.
The mean % effect, on all the parameters simultaneously, of the triple treatment in healthy animal, as mean percentage change relative to the vehicle. This value is useful as an approximate safety index of the oxidative state of the brain, i.e. the capacity of the compounds of the invention not to alter cerebral homeostasis in healthy animals.

[2] = test system: doxorubicin-induced cerebral oxidative stress in mice; assay: In vivo assay of cerebral oxidative stress induced in mice by doxorubicin (model and oxidized animals); details: for inhibition in vivo at 50 mg/kg / change in vivo at 50 mg/kg: Mus musculus; for inhibition in vivo at 50 mg/kg: overall, read-out: inhibition of the doxorubicin effect; for change in vivo at 50 mg/kg / mean % effect relative to doxorubicin alone, all parameters (Vehicle): oxidized mice; for mean % effect relative to doxorubicin alone, all parameters (Vehicle): computed as a function of the vehicle
Procedure: The assay was carried out on compounds (1)-(5) and (7)-(11) and on edaravone (E) as comparative compound.
as §1, §2, §3
The mean effect (n=5 experiments) of doxorubicin (D), i.e. "oxidized" animal, relative to the vehicle (V), the vehicle representing the healthy animal.
All the parameters, with the exclusion of Brain/BWi and Prot. Hmg, were normalized for total Hmg proteins. The D value standard deviations and the % incidence relative to V are given in italics.
The effect of the tested compounds on the "oxidized" animals was given as % inhibition relative to the percentage change due to doxorubicin alone. The effect of the compounds on the oxidized animals can be expressed both as a function of the values of the vehicle (healthy, vehicle only) and as a function of the value of its own (healthy, compound only): • Vehicle: percentage [(Compound+D)/V]x100/[(V+D)/V]x100 • Its own: percentage [(Compound+D)/Compound]x100/[(V+D)/V]x100
Again in this case, the mean % effect relative to doxorubicin alone could be given for all the parameters simultaneously, as an approximate index of effectiveness on the cerebral oxidative state of the animal.

[3] = Acid dissociation constants (pKa) by titration; format: physicochemical; details: pH at semi-neutralization point of titration with 0.1 N NaOH or HCl
Procedure: The following equipment was used during the implementation of all the examples: • for melting point determination a Buchi B-540 instrument was used; • the pKa is the pH at the semi-neutralization point of titration using a Mettler Toledo DL-50 instrument with a 0.1 N NaOH or HC! solution; • the ^1H-NMR spectra were recorded at 300 MHz and the ^13C-NMR spectra were recorded at 75 MHz using a Varian Unity 300 instrument; • spectrophotometric measurements were carried out using a Lambda Perkin Elmer 15 UV/Vis spectrophotometer for the DPPH assay and a Wallac Victor 1420 multilabel counter spectrophotometer.

[4] = healthy mice, 50 mg/kg IP x3 days, percentage change relative to the vehicle
[5] = ip, compared with its own vehicle
[6] = ip, with respect to the vehicle
[7] = ip, % inhibition relative to change due to doxorubicin alone, vs its own, read-out: Brain/BWi its own
[8] = ip, % inhibition relative to change due to doxorubicin alone, vs its own, read-out: CAT/pr its own
[9] = ip, % inhibition relative to change due to doxorubicin alone, vs its own, read-out: GPX/pr its own
[10] = ip, % inhibition relative to change due to doxorubicin alone, vs its own, read-out: GSH/pr its own
[11] = ip, % inhibition relative to change due to doxorubicin alone, vs its own, read-out: GST/pr its own
[12] = ip, % inhibition relative to change due to doxorubicin alone, vs its own, read-out: Prot. Hmg its own
[13] = ip, % inhibition relative to change due to doxorubicin alone, vs its own, read-out: Prot. Ox/pr its own
[14] = ip, % inhibition relative to change due to doxorubicin alone, vs its own, read-out: SOD/pr its own
[15] = ip, % inhibition relative to change due to doxorubicin alone, vs vehicle, read-out: Brain/BWi vehicle
[16] = ip, % inhibition relative to change due to doxorubicin alone, vs vehicle, read-out: CAT/pr vehicle
[17] = ip, % inhibition relative to change due to doxorubicin alone, vs vehicle, read-out: GPX/pr vehicle
[18] = ip, % inhibition relative to change due to doxorubicin alone, vs vehicle, read-out: GSH/pr vehicle
[19] = ip, % inhibition relative to change due to doxorubicin alone, vs vehicle, read-out: GST/pr vehicle
[20] = ip, % inhibition relative to change due to doxorubicin alone, vs vehicle, read-out: Prot. Hmg vehicle
[21] = ip, % inhibition relative to change due to doxorubicin alone, vs vehicle, read-out: Prot. Ox/pr vehicle
[22] = ip, % inhibition relative to change due to doxorubicin alone, vs vehicle, read-out: SOD/pr vehicle
[23] = 50 mg/kg IP x3 days + doxorubicin, computed as a function of its own (healthy, compound only), read-out: mean % effect relative to doxorubicin alone, all parameters (Its own)
[24] = 50 mg/kg IP x3 days + doxorubicin

| Structure (SMILES) | Kp [1] | Average % variation with respect to the vehicle (healthy animals; healthy mice, 50 mg/kg) | Prot. Hmg (healthy animals; [4]) [%] | inhibition in vivo at 50 mg/kg [2, 5] [%] | change in vivo at 50 mg/kg [2, 7] [%] | change in vivo at 50 mg/kg [2, 8] [%] | change in vivo at 50 mg/kg [2, 9] [%] | change in vivo at 50 mg/kg [2, 10] [%] | change in vivo at 50 mg/kg [2, 11] [%] | change in vivo at 50 mg/kg [2, 12] [%] | change in vivo at 50 mg/kg [2, 13] [%] | change in vivo at 50 mg/kg [2, 14] [%] | change in vivo at 50 mg/kg [2, 15] [%] | change in vivo at 50 mg/kg [2, 16] [%] | change in vivo at 50 mg/kg [2, 17] [%] | change in vivo at 50 mg/kg [2, 18] [%] | change in vivo at 50 mg/kg [2, 19] [%] | change in vivo at 50 mg/kg [2, 20] [%] | change in vivo at 50 mg/kg [2, 21] [%] | change in vivo at 50 mg/kg [2, 22] [%] | other results |
| --- | --- | --- | --- | --- | --- | --- | --- | --- | --- | --- | --- | --- | --- | --- | --- | --- | --- | --- | --- | --- | --- |
| O=c1oc2ccccc2c(O)c1C1COCCN1O (centres unmarked) [(10), 4-hydroxy-3-(4-hydroxymorpholin-3-yl)-2H-chromen-2-one] | > 0.1 | did not significantly alter the parameters | 3.1 | ~85 | -65.2 | -115 | -117 | -87.2 | -128 | -113 | -45.3 | -18.9 | -73.9 | -34.1 | -103 | -14.4 | -84.6 | -43.4 | -32.6 | 2.1 | Average % variation with respect to the vehicle (healthy animals; healthy mice, listed as V+(10), 50 mg/kg): -4.4%; Brain/BWi (healthy animals; mouse, in vivo, ip, 50 mg/kg): -5.9%; CAT/pr (healthy animals; mouse, in vivo, ip, 50 mg/kg): -8.2%; GPX/pr (healthy animals; mouse, in vivo, ip, 50 mg/kg): -0.8%; GSH/pr (healthy animals; mouse, in vivo, ip, 50 mg/kg): -3.2%; GST/pr (healthy animals; mouse, in vivo, ip, 50 mg/kg): -1.2%; Prot. Ox/pr (healthy animals; mouse, in vivo, ip, 50 mg/kg): 5.4%; SOD/pr (healthy animals; mouse, in vivo, ip, 50 mg/kg): 2.1%; inhibition in vivo at 50 mg/kg [2, 6]: ≥ 50%; change in vivo at 50 mg/kg [2, 23]: -86.2%; mean % effect relative to doxorubicin alone, all parameters (Vehicle) [2, 24]: -48.0%; pKa1 [3]: 2.70; pKa2 [3]: 6.14 |
| CC1(C)CC(=O)C(C2COCCN2O)C(=O)C1 (centres unmarked) [(4), 2-(4-hydroxymorpholin-3-yl)-5,5-dimethylcyclohexane-1,3-dione] | > 0.1 | did not significantly alter the parameters | 1.9 | ~85 | -26.1 | -102 | -105 | -77.6 | -147 | -106 | 19.2 | -68.5 | -18.8 | -94.7 | -83.8 | -34.4 | -120 | -80.7 | -4.1 | -28.7 | Average % variation with respect to the vehicle (healthy animals; healthy mice, listed as V+(4), 50 mg/kg): -2.1%; Brain/BWi (healthy animals; mouse, in vivo, ip, 50 mg/kg): -0.1%; CAT/pr (healthy animals; mouse, in vivo, ip, 50 mg/kg): -0.7%; GPX/pr (healthy animals; mouse, in vivo, ip, 50 mg/kg): -2.0%; GSH/pr (healthy animals; mouse, in vivo, ip, 50 mg/kg): -4.0%; GST/pr (healthy animals; mouse, in vivo, ip, 50 mg/kg): -5.2%; Prot. Ox/pr (healthy animals; mouse, in vivo, ip, 50 mg/kg): -3.0%; SOD/pr (healthy animals; mouse, in vivo, ip, 50 mg/kg): -5.8%; inhibition in vivo at 50 mg/kg [2, 6]: ≥ 50%; change in vivo at 50 mg/kg [2, 23]: -84.1%; mean % effect relative to doxorubicin alone, all parameters (Vehicle) [2, 24]: -58.1%; pKa1 [3]: 2.28; pKa2 [3]: 6.15 |
| CC1=NN(c2ccccc2)C(=O)C1C1COCCN1O (centres unmarked) [(11), 4-(4-hydroxymorpholin-3-yl)-3-methyl-1-phenyl-1H-pyrazol-5(4H)-one] | > 0.1 | did not significantly alter the parameters | 1.7 | ~65 | -23.2 | 36.4 | -7.1 | -21.6 | -2.2 | -15.7 | -84.3 | -2.1 | 11.6 | 60.6 | 9.1 | -16 | 1.1 | -2.4 | -69.8 | 18.9 | Average % variation with respect to the vehicle (healthy animals; healthy mice, listed as V+(11), 50 mg/kg): -2.0%; Brain/BWi (healthy animals; [4]): -2.7%; CAT/pr (healthy animals; [4]): -1.6%; GPX/pr (healthy animals; [4]): -3.3%; GSH/pr (healthy animals; [4]): -1.2%; GST/pr (healthy animals; [4]): -0.9%; Prot. Ox/pr (healthy animals; [4]): 1.5%; SOD/pr (healthy animals; [4]): -33. %; change in vivo at 50 mg/kg [2, 23]: -64.7%; pKa1 [3]: 3.31; pKa2 [3]: 6.92 |
| O=C1CC(c2ccccc2)CC(=O)C1C1COCCN1O (centres unmarked) [(5), 2-(4-hydroxymorpholin-3-yl)-5-phenylcyclohexane-1,3-dione] | > 0.1 | did not significantly alter the parameters | 5.0 | 45 to 50 | -128 | -24.2 | -14.1 | -40.8 | -27.5 | -42.2 | -43.6 | 3.5 | -49.3 | 7.6 | -7.1 | -21.6 | -8.8 | -12 | -15.7 | -4.2 | Average % variation with respect to the vehicle (healthy animals; healthy mice, listed as V+(5), 50 mg/kg): -3.2%; Brain/BWi (healthy animals; mouse, in vivo, ip, 50 mg/kg): 0.1%; CAT/pr (healthy animals; mouse, in vivo, ip, 50 mg/kg): -8.1%; GPX/pr (healthy animals; mouse, in vivo, ip, 50 mg/kg): -4.1%; GSH/pr (healthy animals; mouse, in vivo, ip, 50 mg/kg): -6.7%; GST/pr (healthy animals; mouse, in vivo, ip, 50 mg/kg): -5.8%; Prot. Ox/pr (healthy animals; mouse, in vivo, ip, 50 mg/kg): 1.8%; SOD/pr (healthy animals; mouse, in vivo, ip, 50 mg/kg): -3.7%; change in vivo at 50 mg/kg [2, 23]: -47.5%; pKa1 [3]: 2.71; pKa2 [3]: 6.44 |
